Results published in patent US20070049538A1, “METHODS FOR USING CUCURBITACIN COMPOUNDS” (SOUTH DAKOTA STATE UNIVERSITY, priority 2005, published 2007).

Tests used:
[1] = system: HepG2 cells; test: Cucurbitacins cytotoxicity on HepG2 cells (MTT viability assay); format: cell-based, human
[2] = Chromatographic hydrophobicity index (CHI) by RP-HPLC in buffered acetonitrile; format: physicochemical; parameters: key: CHI = φ0 (isocratic hydrophobicity index), = A·tR + B; ACN % scale; settings: for CHIACN1: buffered acetonitrile pH 7.0, Alltima C18 250 mm, Eq. (2) from isocratic φ0; for CHIACN2: buffered acetonitrile pH 7.0, Eq. (3) calibrated against published CHI
[3] = system: HSC-T6 cells; test: Cytotoxicity on HSC-T6 cells (experiment 3); format: cell-based, rat; settings: read-out: Experiment 3 IC50 (T)
Description: Cytotoxicity of all cucurbitacin analogs was additionally measured in experiment 3 (Table 8).

[4] = system: HepG2 cells; test: cells; settings: for EC50: read-out: EC50 cytoprotection, Table 7, HepG2 against CCl4 toxicity, estimated
Description: Experimental conditions were standardized on silybin. […]
The ratio of IC50-to-EC50 (hereafter T/A) is also indicated in this table, which gives the margin between toxic and cytoprotective concentrations.

[5] = Chromatographic hydrophobicity index (CHI) by RP-HPLC in buffered methanol; format: physicochemical; settings: buffered methanol pH 7.0, Econosil C18 150 mm, Eq. (4)
[6] = system: lipid peroxidation of microsomal suspension; test: Microsomal Lipid Peroxidation Assay; format: biochemical; settings: at 0.1 mM, both chemical and enzymatic assays
Procedure: Cucurbitacin anti-lipid peroxidation was studied by the Microsomal Lipid Peroxidation Assay (Engineer et al., Biochemical Pharmacology 38(8): 1279-1285, 1989). Lipid peroxidation of microsomal suspension was induced both enzymatically and chemically and validated on the standard compound quercetin. […] Activity of 3 cucurbitacin analogs, B, E, and E-Me-ether was monitored at 0.1 mM indicating no inhibition in either the chemical or enzymatic assay.

## CC(=O)OC(C)(C)/C=C/C(=O)[C@](C)(O)[C@H]1[C@H](O)C[C@@]2(C)[C@@H]3CC=C4[C@@H](C=C(O[C@@H]5O[C@H](CO)[C@@H](O)[C@H](O)[C@H]5O)C(=O)C4(C)C)[C@]3(C)C(=O)C[C@]12C [E-Gluc, cucurbitacin E glucoside]
[1]; Table 4, 24 h incubation, MTT
  IC50: 227 ± 15.3 µM
[1]; Table 5
  IC50: 227 ± 15.5 µM
[1]; Table 7
  IC50: 227 µM
[2]
  CHIACN1: 53.98
  CHIACN2: 49.13
[3]
  IC50: 102 µM
[4]; at 6.25% of IC50, against CCl4
  cytoprotection on HepG2 cells: −2.36 ± 1.08
[4]; at 12.5% of IC50, against CCl4
  cytoprotection on HepG2 cells: 17.96 ± 1.14
[4]; at 20% of IC50, against CCl4
  cytoprotection on HepG2 cells: 49.44 ± 0.29
[4]; at 50% of IC50, against CCl4
  cytoprotection on HepG2 cells: 33.92 ± 2.92
[4]
  EC50: 45.3 µM
[5]
  CHIMeOH: 62.27

## CC(=O)OC(C)(C)/C=C/C(=O)[C@](C)(O)[C@H]1[C@H](O)C[C@@]2(C)[C@@H]3CC=C4[C@H](C[C@H](O)C(=O)C4(C)C)[C@]3(C)C(=O)C[C@]12C [B, cucurbitacin B]
[1]; Table 4, 24 h incubation, MTT
  IC50: 27.7 ± 9 µM
[1]; Table 5
  IC50: 27.7 ± 9 µM
[1]; Table 7
  IC50: 27.7 µM
[2]
  CHIACN1: 70.93
  CHIACN2: 75.40
[6]
  inhibition of lipid peroxidation: no inhibition
[3]
  IC50: 4.4 µM
[4]; at 6.25% of IC50, against CCl4
  cytoprotection on HepG2 cells: 12.45 ± 1.11
[4]; at 12.5% of IC50, against CCl4
  cytoprotection on HepG2 cells: 25.25 ± 1.36
[4]; at 20% of IC50, against CCl4
  cytoprotection on HepG2 cells: 34.92 ± 2.76
[4]; at 50% of IC50, against CCl4
  cytoprotection on HepG2 cells: 60.01 ± 0.80
[4]
  EC50: 10.5 µM
[5]
  CHIMeOH: 67.33

## cucurbitacin E
[1]; Table 4, 24 h incubation, MTT
  IC50: 15.3 µM
[1]; Table 5
  IC50: 15.3 ± 6.6 µM
[1]; Table 7
  IC50: 15.3 µM
[2]
  CHIACN1: 75.92
  CHIACN2: 83.13
[6]
  inhibition of lipid peroxidation: no inhibition
[4]; at 6.25% of IC50, against CCl4
  cytoprotection on HepG2 cells: 12.41 ± 0.78
[4]; at 12.5% of IC50, against CCl4
  cytoprotection on HepG2 cells: 21.72 ± 0.75
[4]; at 20% of IC50, against CCl4
  cytoprotection on HepG2 cells: 49.21 ± 1.73
[4]; at 50% of IC50, against CCl4
  cytoprotection on HepG2 cells: 80.55 ± 6.80
[4]
  EC50: 3.2 µM
[5]
  CHIMeOH: 69.6!^

## Cucurbitacin E-Me ether
[1]; Table 4, 24 h incubation, MTT
  IC50: 12 ± 3 µM
[1]; Table 5
  IC50: 12 ± 3 µM
[1]; Table 7
  IC50: 12 µM
[2]
  CHIACN1: 77.84
  CHIACN2: 86.09
[6]
  inhibition of lipid peroxidation: no inhibition
[3]
  IC50: 2.8 µM
[4]
  EC50: 2.4 µM
[5]
  CHIMeOH: 71.55
